Measured values: PubChem BioAssay (NCI)
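Grown in 96-well plates, cells were treated for 48 hours with each compound at five concentrations. Insufficient inhibition: endpoint recorded as highest concentration tested. Here, GI50 denotes the concentration required for 50% inhibition of growth. TGI denotes the concentration required for complete inhibition of growth.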

Assays:
Assay in all cases: DTP human tumour cell line panel, 48 h
OVCAR-8 ovarian = tested on: OVCAR-8 ovarian
NCI-H522 lung = tested on: NCI-H522 lung
SF-268 CNS = tested on: SF-268 CNS
UACC-257 melanoma = tested on: UACC-257 melanoma
CAKI-1 renal = tested on: CAKI-1 renal
CCRF-CEM leukemia = tested on: CCRF-CEM leukemia
HCT-116 colon = tested on: HCT-116 colon
786-0 renal = tested on: 786-0 renal
OVCAR-3 ovarian = tested on: OVCAR-3 ovarian
NCI/ADR-RES ovarian = tested on: NCI/ADR-RES ovarian

C[C@@]1(C(=O)O)CCC[C@]2(C)C1CC[C@@]13C[C@@](O)(CC[C@]12O)[C@@]1(CO1)C3 (some centres not stated)
GI50 (OVCAR-8 ovarian): > 100 µM | TGI (OVCAR-8 ovarian): > 100 µM | GI50 (NCI-H522 lung): > 100 µM | TGI (NCI-H522 lung): > 100 µM | GI50 (SF-268 CNS): > 100 µM | TGI (SF-268 CNS): > 100 µM | GI50 (UACC-257 melanoma): > 100 µM | TGI (UACC-257 melanoma): > 100 µM | GI50 (CAKI-1 renal): > 100 µM | TGI (CAKI-1 renal): > 100 µM | GI50 (CCRF-CEM leukemia): > 100 µM | TGI (CCRF-CEM leukemia): > 100 µM | GI50 (HCT-116 colon): > 100 µM | TGI (HCT-116 colon): > 100 µM | GI50 (786-0 renal): > 100 µM | TGI (786-0 renal): > 100 µM | GI50 (OVCAR-3 ovarian): > 100 µM | TGI (OVCAR-3 ovarian): > 100 µM | GI50 (NCI/ADR-RES ovarian): > 100 µM | TGI (NCI/ADR-RES ovarian): > 100 µM

CC1=CC(C)=NN=C(N)N1S(=O)(=O)c1cc(C)c(Cl)cc1SCc1ccccc1
GI50 (OVCAR-8 ovarian): 56.6 µM | TGI (OVCAR-8 ovarian): > 100 µM | GI50 (NCI-H522 lung): 7.78 µM | TGI (NCI-H522 lung): > 100 µM | GI50 (SF-268 CNS): 35.1 µM | TGI (SF-268 CNS): > 100 µM | GI50 (UACC-257 melanoma): 37.6 µM | TGI (UACC-257 melanoma): > 100 µM | GI50 (CAKI-1 renal): > 100 µM | TGI (CAKI-1 renal): > 100 µM | GI50 (CCRF-CEM leukemia): 9.15 µM | TGI (CCRF-CEM leukemia): > 100 µM | GI50 (HCT-116 colon): 7.2 µM | TGI (HCT-116 colon): > 100 µM | GI50 (786-0 renal): 73.4 µM | TGI (786-0 renal): > 100 µM | GI50 (OVCAR-3 ovarian): 22.6 µM | TGI (OVCAR-3 ovarian): > 100 µM | GI50 (NCI/ADR-RES ovarian): 8.71 µM | TGI (NCI/ADR-RES ovarian): > 100 µM

COC1C(O)CC(OC2CC(OC3CC(O[C@@H]4C(=O)c5c(cc6cc(OC7CC(OC8CC(O)C(O)C(C)O8)C(O)C(C)O7)c(C)c(O)c6c5O)CC4[C@H](OC)C(=O)O)OC(C)C3O)OC(C)C2O)OC1C (some centres not stated)
GI50 (OVCAR-8 ovarian): 2.27 µM | TGI (OVCAR-8 ovarian): > 33.3 µM | GI50 (NCI-H522 lung): 1.7 µM | TGI (NCI-H522 lung): > 33.3 µM | GI50 (SF-268 CNS): 2.64 µM | TGI (SF-268 CNS): > 33.3 µM | GI50 (UACC-257 melanoma): 1.94 µM | TGI (UACC-257 melanoma): 13.5 µM | GI50 (CAKI-1 renal): 2.6 µM | TGI (CAKI-1 renal): > 33.3 µM | GI50 (CCRF-CEM leukemia): 3.57 µM | TGI (CCRF-CEM leukemia): > 33.3 µM | GI50 (HCT-116 colon): 1.25 µM | TGI (HCT-116 colon): > 33.3 µM | GI50 (786-0 renal): 2.1 µM | TGI (786-0 renal): > 33.3 µM | GI50 (OVCAR-3 ovarian): 2.06 µM | TGI (OVCAR-3 ovarian): > 33.3 µM | GI50 (NCI/ADR-RES ovarian): 10.3 µM | TGI (NCI/ADR-RES ovarian): > 33.3 µM

Cn1c(=O)c(Oc2ccc(F)cc2F)cc2cnc(NC(C)(C)CO)nc21
GI50 (OVCAR-8 ovarian): > 25 µM | TGI (OVCAR-8 ovarian): > 25 µM | GI50 (NCI-H522 lung): > 25 µM | TGI (NCI-H522 lung): > 25 µM | GI50 (SF-268 CNS): > 25 µM | TGI (SF-268 CNS): > 25 µM | GI50 (UACC-257 melanoma): > 25 µM | TGI (UACC-257 melanoma): > 25 µM | GI50 (CAKI-1 renal): > 25 µM | TGI (CAKI-1 renal): > 25 µM | GI50 (CCRF-CEM leukemia): > 25 µM | TGI (CCRF-CEM leukemia): > 25 µM | GI50 (HCT-116 colon): > 25 µM | TGI (HCT-116 colon): > 25 µM | GI50 (786-0 renal): > 25 µM | TGI (786-0 renal): > 25 µM | GI50 (OVCAR-3 ovarian): > 25 µM | TGI (OVCAR-3 ovarian): > 25 µM | GI50 (NCI/ADR-RES ovarian): > 25 µM | TGI (NCI/ADR-RES ovarian): > 25 µM

COc1cc(Oc2c(C)c(Cl)c(OC)c(Cl)c2OC)c2c(c1Cl)COC2=O
TGI (OVCAR-8 ovarian): > 100 µM | TGI (NCI-H522 lung): 33.7 µM | TGI (SF-268 CNS): > 100 µM | TGI (UACC-257 melanoma): > 100 µM | TGI (CAKI-1 renal): > 100 µM | TGI (CCRF-CEM leukemia): > 100 µM | TGI (HCT-116 colon): > 100 µM | TGI (786-0 renal): 68.4 µM | TGI (NCI/ADR-RES ovarian): > 100 µM

Oc1ccc(Nc2ccc3ccccc3c2)cc1
GI50 (OVCAR-8 ovarian): 6.49 µM | TGI (OVCAR-8 ovarian): 56.7 µM | GI50 (NCI-H522 lung): 8.99 µM | TGI (NCI-H522 lung): 27.7 µM | GI50 (SF-268 CNS): 4.94 µM | TGI (SF-268 CNS): 29.4 µM | GI50 (UACC-257 melanoma): 4.86 µM | TGI (UACC-257 melanoma): 34.3 µM | GI50 (CAKI-1 renal): 1.52 µM | TGI (CAKI-1 renal): 5.93 µM | GI50 (CCRF-CEM leukemia): 7.69 µM | TGI (CCRF-CEM leukemia): > 100 µM | GI50 (HCT-116 colon): 9.23 µM | TGI (HCT-116 colon): 24 µM | GI50 (786-0 renal): 3.78 µM | TGI (786-0 renal): 15.5 µM | GI50 (OVCAR-3 ovarian): 5.66 µM | TGI (OVCAR-3 ovarian): 19 µM | GI50 (NCI/ADR-RES ovarian): 4.4 µM | TGI (NCI/ADR-RES ovarian): 67 µM

C=C1CC2(CC(c3ccccc3Cl)OC(c3ccccc3Cl)C2)OC1=O (configuration not stated)
TGI (OVCAR-8 ovarian): 4.71 µM | TGI (NCI-H522 lung): 3.3 µM | TGI (SF-268 CNS): 5.62 µM | TGI (UACC-257 melanoma): 5.14 µM | TGI (CAKI-1 renal): 5.11 µM | TGI (CCRF-CEM leukemia): 10.1 µM | TGI (HCT-116 colon): 3.17 µM | TGI (786-0 renal): 4.66 µM | TGI (OVCAR-3 ovarian): 5.96 µM | TGI (NCI/ADR-RES ovarian): 8.55 µM

COc1cccc(/C=C/C(=O)c2ccc(SC)cc2)c1OC
GI50 (OVCAR-8 ovarian): 12.7 µM | TGI (OVCAR-8 ovarian): 25.6 µM | GI50 (NCI-H522 lung): 19.2 µM | TGI (NCI-H522 lung): 38.9 µM | GI50 (SF-268 CNS): 20.2 µM | TGI (SF-268 CNS): 42.3 µM | GI50 (UACC-257 melanoma): 15.7 µM | TGI (UACC-257 melanoma): 29.3 µM | GI50 (CAKI-1 renal): 18.4 µM | TGI (CAKI-1 renal): 35.9 µM | GI50 (CCRF-CEM leukemia): 14.2 µM | TGI (CCRF-CEM leukemia): 97.5 µM | GI50 (HCT-116 colon): 4.35 µM | TGI (HCT-116 colon): 15.4 µM | GI50 (786-0 renal): 14.2 µM | TGI (786-0 renal): 28.2 µM | GI50 (OVCAR-3 ovarian): 16.4 µM | TGI (OVCAR-3 ovarian): 32 µM | GI50 (NCI/ADR-RES ovarian): 16.2 µM | TGI (NCI/ADR-RES ovarian): 38.5 µM

CC1(C)S[C@@H]2[C@H](N3C(=O)c4ccccc4C3=O)CN2[C@H]1NC(=O)N[C@@H]1N2C[C@@H](N3C(=O)c4ccccc4C3=O)[C@H]2SC1(C)C
TGI (OVCAR-8 ovarian): > 100 µM | TGI (NCI-H522 lung): > 100 µM | TGI (SF-268 CNS): 81.3 µM | TGI (CAKI-1 renal): > 100 µM | TGI (CCRF-CEM leukemia): > 100 µM | TGI (HCT-116 colon): > 100 µM | TGI (786-0 renal): > 100 µM | TGI (OVCAR-3 ovarian): > 100 µM | TGI (NCI/ADR-RES ovarian): > 100 µM

COc1ccc(C=Nc2c(C(=O)Nc3cccc(Cl)c3C)sc3nc(C)c(C(=O)/C=C/c4ccc(OC)cc4)cc23)cc1
GI50 (OVCAR-8 ovarian): 1.38 µM | TGI (OVCAR-8 ovarian): > 50 µM | GI50 (NCI-H522 lung): 0.157 µM | GI50 (SF-268 CNS): 1.6 µM | TGI (SF-268 CNS): > 50 µM | GI50 (UACC-257 melanoma): 2.88 µM | TGI (UACC-257 melanoma): > 50 µM | GI50 (CAKI-1 renal): 0.652 µM | TGI (CAKI-1 renal): > 50 µM | GI50 (CCRF-CEM leukemia): 0.819 µM | TGI (CCRF-CEM leukemia): > 50 µM | GI50 (HCT-116 colon): 0.362 µM | TGI (HCT-116 colon): > 50 µM | GI50 (786-0 renal): 0.656 µM | TGI (786-0 renal): > 30 µM | GI50 (OVCAR-3 ovarian): 0.267 µM | TGI (OVCAR-3 ovarian): 5.95 µM | GI50 (NCI/ADR-RES ovarian): 0.197 µM | TGI (NCI/ADR-RES ovarian): 1.17 µM
